Data taken from patent US20230278972A1, “SUBSTITUTED HALOALKYL SULFONANILIDE HERBICIDES” (FMC Corporation, priority 2020, published 2023).

How the values were obtained:
Assay type in all cases: in vivo
[1] = system: wheat (Triticum aestivum); assay: Test A postemergence, wheat; conditions: Postemergence, 0 to 100 scale (0 no effect, 100 complete control); for Wheat plant response rating: visual injury vs untreated controls after approx. 10 days
From the text: (§1) Seeds of plant species selected from barnyardgrass (Echinochloa crus-galli), kochia (Bassia scoparia), ragweed (common ragweed, Ambrosia artemisiifolia), Ryegrass, Italian (Italian ryegrass, Lolium multiflorum), Foxtail, Giant (giant foxtail, Setaria faberi), and pigweed (Amaranthus retroflexus) were planted into a blend of loam soil and sand and treated preemergence with a directed soil spray using test chemicals formulated in a non-phytotoxic solvent mixture which included a surfactant. At the same time, plants selected from these weed species and also wheat (Triticum aestivum), corn (Zea mays), blackgrass (Alopecurus myosuroides), and galium (catchweed bedstraw, Galium aparine) were planted in pots containing the same blend of loam soil and sand and treated with postemergence applications of test chemicals formulated in the same manner. Plants ranged in height from 2 to 10 cm and were in the one- to two-leaf stage for the postemergence treatment. […] A dash (-) response means no test result.

[2] = system: Foxtail, Giant (giant foxtail, Setaria faberi); assay: Test A preemergence, Foxtail, Giant; conditions: Preemergence; for Foxtail, Giant plant response rating: visual injury on 0 to 100 scale (0 no effect, 100 complete control), approximately 10 days; for Plant response rating, Foxtail, Giant: 0 to 100 scale (0 no effect, 100 complete control)
From the text: as §1

[3] = system: Ryegrass, Italian (Italian ryegrass, Lolium multiflorum); assay: Test A preemergence, Ryegrass, Italian; conditions: Preemergence; for Ryegrass, Italian plant response rating: visual injury on 0 to 100 scale (0 no effect, 100 complete control), approximately 10 days; for Plant response rating, Ryegrass, Italian: 0 to 100 scale (0 no effect, 100 complete control)
From the text: as §1

[4] = system: ragweed (common ragweed, Ambrosia artemisiifolia); assay: Test A preemergence, ragweed; conditions: Preemergence; for Ragweed plant response rating: visual injury on 0 to 100 scale (0 no effect, 100 complete control), approximately 10 days; for Plant response rating, Ragweed: 0 to 100 scale (0 no effect, 100 complete control)
From the text: as §1

corn (Zea mays) = assay: Test A postemergence, corn; conditions: Postemergence, 0 to 100 scale (0 no effect, 100 complete control); for Corn plant response rating: visual injury vs untreated controls after approx. 10 days
From the text: as §1

[5] = system: pigweed (Amaranthus retroflexus); assay: Test A postemergence, pigweed; conditions: Postemergence, 0 to 100 scale (0 no effect, 100 complete control); for Pigweed plant response rating: visual injury vs untreated controls after approx. 10 days
From the text: as §1

kochia (Bassia scoparia) [6] = assay: Test A postemergence, kochia; conditions: Postemergence, 0 to 100 scale (0 no effect, 100 complete control); for Kochia plant response rating: visual injury vs untreated controls after approx. 10 days
From the text: as §1

[7] = system: Ryegrass, Italian (Italian ryegrass, Lolium multiflorum); assay: Test A postemergence, Ryegrass, Italian; conditions: Postemergence, 0 to 100 scale (0 no effect, 100 complete control); for Ryegrass, Italian plant response rating: visual injury vs untreated controls after approx. 10 days
From the text: as §1

[8] = system: Foxtail, Giant (giant foxtail, Setaria faberi); assay: Test A postemergence, Foxtail, Giant; conditions: Postemergence, 0 to 100 scale (0 no effect, 100 complete control); for Foxtail, Giant plant response rating: visual injury vs untreated controls after approx. 10 days
From the text: as §1

kochia (Bassia scoparia) [9] = assay: Test A preemergence, kochia; conditions: Preemergence; for Kochia plant response rating: visual injury on 0 to 100 scale (0 no effect, 100 complete control), approximately 10 days; for Plant response rating, Kochia: 0 to 100 scale (0 no effect, 100 complete control)
From the text: as §1

[10] = system: galium (catchweed bedstraw, Galium aparine); assay: Test A postemergence, galium; conditions: Postemergence, 0 to 100 scale (0 no effect, 100 complete control); for Galium plant response rating: visual injury vs untreated controls after approx. 10 days
From the text: as §1

[11] = system: barnyardgrass (Echinochloa crus-galli); assay: Test A preemergence, barnyardgrass; conditions: Preemergence; for Barnyardgrass plant response rating: visual injury on 0 to 100 scale (0 no effect, 100 complete control), approximately 10 days; for Plant response rating, Barnyardgrass: 0 to 100 scale (0 no effect, 100 complete control)
From the text: as §1

[12] = system: blackgrass (Alopecurus myosuroides); assay: Test A postemergence, blackgrass; conditions: Postemergence, 0 to 100 scale (0 no effect, 100 complete control); for Blackgrass plant response rating: visual injury vs untreated controls after approx. 10 days
From the text: as §1

[13] = system: barnyardgrass (Echinochloa crus-galli); assay: Test A postemergence, barnyardgrass; conditions: Postemergence, 0 to 100 scale (0 no effect, 100 complete control); for Barnyardgrass plant response rating: visual injury vs untreated controls after approx. 10 days
From the text: as §1

[14] = system: ragweed (common ragweed, Ambrosia artemisiifolia); assay: Test A postemergence, ragweed; conditions: Postemergence, 0 to 100 scale (0 no effect, 100 complete control); for Ragweed plant response rating: visual injury vs untreated controls after approx. 10 days
From the text: as §1

[15] = 500 g ai/ha, visual injury approx. 10 days
[16] = 125 g ai/ha, visual injury, approx. 10 days

Structure (SMILES)	Plant response rating, Wheat ([1]; 125 g ai/ha)	Wheat plant response rating ([1]; 500 g ai/ha)	Foxtail, Giant plant response rating ([2]; 125 g ai/ha)	Plant response rating, Foxtail, Giant ([2]; 500 g ai/ha)	Ryegrass, Italian plant response rating ([3]; 125 g ai/ha)	Plant response rating, Ryegrass, Italian ([3]; 500 g ai/ha)	Ragweed plant response rating ([4]; 125 g ai/ha)	Plant response rating, Ragweed ([4]; 500 g ai/ha)	Plant response rating, Corn (corn (Zea mays); 125 g ai/ha)	Corn plant response rating (corn (Zea mays); 500 g ai/ha)	Plant response rating, Pigweed ([5]; 125 g ai/ha)	Pigweed plant response rating ([5]; 500 g ai/ha)	Plant response rating, Kochia (kochia (Bassia scoparia) [6]; 125 g ai/ha)	Kochia plant response rating (kochia (Bassia scoparia) [6]; 500 g ai/ha)	Plant response rating, Ryegrass, Italian ([7]; 125 g ai/ha)	Plant response rating, Foxtail, Giant ([8]; 125 g ai/ha)	Plant response rating, Galium ([10]; 125 g ai/ha)	Plant response rating, Blackgrass ([12]; 125 g ai/ha)	Plant response rating, Barnyardgrass ([13]; 125 g ai/ha)	Plant response rating, Ragweed ([14]; 125 g ai/ha)	further results
C#CCN(C)C(=O)c1cc(N(S(=O)(=O)C(F)(F)F)S(=O)(=O)C(F)(F)F)c(C)c(F)c1C [Compound 147]	30	60	90	100	90	100	90	90	10	80	70	90	50	70	30	70	80	0	90	90	Ryegrass, Italian plant response rating ([7]; 500 g ai/ha): 70; Foxtail, Giant plant response rating ([8]; 500 g ai/ha): 90; Kochia plant response rating (kochia (Bassia scoparia) [9]; 125 g ai/ha): 70; Plant response rating, Kochia (kochia (Bassia scoparia) [9]; 500 g ai/ha): 90; Galium plant response rating ([10]; 500 g ai/ha): 90; Barnyardgrass plant response rating ([11]; 125 g ai/ha): 90; Plant response rating, Barnyardgrass ([11]; 500 g ai/ha): 100; Blackgrass plant response rating ([12]; 500 g ai/ha): 30; Barnyardgrass plant response rating ([13]; 500 g ai/ha): 90; Ragweed plant response rating ([14]; 500 g ai/ha): 90
Cc1cc(C)c(C2=NOC3CCCC23)cc1NS(=O)(=O)C(F)(F)F (stereo not drawn) [Compound 164]	60	70	90	100	80	100	90	100	0	80	70	90	60	90	80	0	80	0	80	70	Ryegrass, Italian plant response rating ([7]; 500 g ai/ha): 90; Foxtail, Giant plant response rating ([8]; 500 g ai/ha): 40; Kochia plant response rating (kochia (Bassia scoparia) [9]; 125 g ai/ha): 100; Plant response rating, Kochia (kochia (Bassia scoparia) [9]; 500 g ai/ha): 100; Galium plant response rating ([10]; 500 g ai/ha): 90; Barnyardgrass plant response rating ([11]; 125 g ai/ha): 90; Plant response rating, Barnyardgrass ([11]; 500 g ai/ha): 100; Blackgrass plant response rating ([12]; 500 g ai/ha): 40; Barnyardgrass plant response rating ([13]; 500 g ai/ha): 90; Ragweed plant response rating ([14]; 500 g ai/ha): 90
C#CCN(C)C(=O)c1cc(NS(=O)(=O)C(F)(F)F)c(C)c(F)c1C [Compound 179]	0	60	80	100	100	100	90	90	20	80	80	90	60	70	40	70	90	20	90	90	Ryegrass, Italian plant response rating ([7]; 500 g ai/ha): 80; Foxtail, Giant plant response rating ([8]; 500 g ai/ha): 90; Kochia plant response rating (kochia (Bassia scoparia) [9]; 125 g ai/ha): 90; Plant response rating, Kochia (kochia (Bassia scoparia) [9]; 500 g ai/ha): 90; Galium plant response rating ([10]; 500 g ai/ha): 90; Barnyardgrass plant response rating ([11]; 125 g ai/ha): 90; Plant response rating, Barnyardgrass ([11]; 500 g ai/ha): 90; Blackgrass plant response rating ([12]; 500 g ai/ha): 40; Barnyardgrass plant response rating ([13]; 500 g ai/ha): 90; Ragweed plant response rating ([14]; 500 g ai/ha): 90
Cc1cc(Cl)c(NS(=O)(=O)C(F)(F)F)cc1C(=O)N1CCOCC1C (stereo not drawn) [Compound 245]	60	–	–	–	–	–	–	–	20	–	80	–	40	–	70	50	90	40	90	90	Plant response rating, Wheat [1, 15]: 60; Plant response rating, Foxtail, Giant [2, 16]: 100; Foxtail, Giant plant response rating ([2]; 500 g ai/ha): 100; Plant response rating, Ryegrass, Italian [3, 16]: 80; Ryegrass, Italian plant response rating ([3]; 500 g ai/ha): 100; Plant response rating, Ragweed [4, 16]: 90; Ragweed plant response rating ([4]; 500 g ai/ha): 90; Plant response rating, Corn (corn (Zea mays); [15]): 60; Plant response rating, Pigweed [5, 15]: 90; Plant response rating, Kochia (kochia (Bassia scoparia) [6]; [15]): 60; Plant response rating, Ryegrass, Italian [7, 15]: 80; Plant response rating, Foxtail, Giant [8, 15]: 90; Plant response rating, Kochia (kochia (Bassia scoparia) [9]; [16]): 80; Kochia plant response rating (kochia (Bassia scoparia) [9]; 500 g ai/ha): 80; Plant response rating, Galium [10, 15]: 90; Plant response rating, Barnyardgrass [11, 16]: 90; Barnyardgrass plant response rating ([11]; 500 g ai/ha): 100; Plant response rating, Blackgrass [12, 15]: 60; Plant response rating, Barnyardgrass [13, 15]: 90; Plant response rating, Ragweed [14, 15]: 90
